{"source": "patent US20030176381A1", "about": "“Hyaluronic acid in the treatment of cancer” (priority 2002, published 2003)", "key": {"[1]": {"test_system": "PC-3 human prostate cancer cells", "assay": "MTT cell proliferation, PC-3", "format": "cell-based", "method": "(§1) Cell proliferation was measured using dimethylthiazoldiphenyltetrazolium (MTT) reduction (Mosman et al. J. Immunol. Methods 65:55, 1983). Unless otherwise stated, 100 Al of 5 mg of MTT (Sigma-Aldrich, St. Louis, Mo., USA) dissolved in 1 ml of PBS was added into each well. After 4 h, medium was removed from each well, 1.0 ml of acid-isopropanol (0.04 N HCI in isopropanol) was added and reduced MTT was solubilized by mixing. Absorbency of the reaction product was measured at a wavelength of 570 nm using a multiplate spectrophotometer reader (Elx800 Model, Bio-TEK Instruments Inc., Winooski, Vt., USA).\n(§2) Unless stated otherwise 1.0 x 10^5 cells/ml were seeded in 6-well flat-bottom tissue culture plates and were maintained for 48 h at 370 C in a 5% CO2 atmosphere.\n(§3) PC-3, LNCAP and Du-145 human prostate cancer cells; MCF-7 human breast cancer cells; HT-1080 human fibrosarcoma cancer cells; B16F1 murine melanoma cells; and, UMUC-3, RT-4, HT-1376 and T-24 human bladder cancer cells were incubated with 0.8, 8.0 and 80 μg/ml of 5.0-7.5 x 10^5 Da HA (Table 2).\n(§4) PC-3. LNCaP and Du-145 human prostate cancer cells were incubated with 8.0 jg/ml of 5.0-7.5 x 105 Da HA or of <1.5 x 10^4 Da HA (Table 3).\n(§5) Unless stated otherwise 2.0 x 10^4 cells/ml were seeded in 24-well plates and were maintained for 48 h at 370 C in a 5% CO2 atmosphere. MTT was used at 50 μl per well.\n(§6) T-24 human bladder cancer cells, PC-3 and Du-145 human prostate cancer cells, and MCF-7 human breast cancer cell were incubated with saline or with 80.0 jg/ml of 5.0-7.5 x 105 Da HA +1.0 μg/ml of M-DNA (Table 4).\n(§7) CD44 expression and the inhibition of proliferation by 5.0-7.5 x 10^5 Da HA were measured using Jurkat T cell leukemia cells; MCF-7 human breast cancer cells; RT-4, T-24, HT-1376 and UMUC-3 human bladder cancer cells; and, PC-3, Du-145 and LNCaP prostate cancer cells (Table 8)"}, "[2]": {"test_system": "LNCaP human prostate cancer cells", "assay": "MTT cell proliferation, LNCaP", "format": "cell-based", "details": "48 h", "method": "as §1, §2, §3, §4, §7"}, "[3]": {"test_system": "Du-145 human prostate cancer cells", "assay": "MTT cell proliferation, Du-145", "format": "cell-based", "method": "as §1, §2, §3, §4, §5, §6, §7"}, "[4]": {"test_system": "MCF-7 human breast cancer cells", "assay": "MTT cell proliferation, MCF-7", "format": "cell-based", "method": "as §1, §2, §3, §5, §6\nMTT was used at 50 µl per well.\nExample 8 s HA potentiation of the anti-neoplastic effect ofchemotherapeutic drugs RT-4 human bladder cancer cells and MCF-7 human breast cancer cells were incubated as in Example 6 with 0.0, 0.008 or 0.08 pg/ml of 5.0-7.5 x 10^5 Da HA +0.1 jg/ml of CIS, +1.0 jg/ml of 5-FU or +10 jig/ml of 5-FU (Table 7).\nas §7"}, "[5]": {"test_system": "B16F1 murine melanoma cells", "assay": "MTT cell proliferation, B16F1", "format": "cell-based", "details": "48 h", "method": "as §1, §2, §3"}, "[6]": {"test_system": "UMUC-3 human bladder cancer cells", "assay": "MTT cell proliferation, UMUC-3", "format": "cell-based", "details": "48 h", "method": "as §1, §2, §3, §7"}, "[7]": {"test_system": "HT-1376 human bladder cancer cells", "assay": "MTT cell proliferation, HT-1376", "format": "cell-based", "method": "as §1, §2, §3, §5\nHT-1376, RT-4 and T-24 human bladder cancer cells were incubated with 0.8 pg/ml of 5.0-7.5 x 10^5 Da HA +1.0 ug/ml of MCC (Table 5).\nas §7"}, "[8]": {"test_system": "Jurkat T cell leukemia cells", "assay": "MTT cell proliferation, Jurkat T", "format": "cell-based", "details": "HA 80 μg/ml", "method": "as §1, §2, §7"}, "[9]": {"test_system": "IL-6 production by peripheral blood mononuclear cells", "assay": "IL-6 production by PBMCs (ELISA)", "format": "cell-based, humans", "method": "Peripheral blood mononuclear cells (hereinafter, “PBMCs”) were isolated from the blood of 5 healthy humans by Ficoll-Hypaque (Amersham Pharmacia Biotech, Baie d'Urfee, Quebec, Canada) density gradient centrifugation of whole blood. Stimulation of IL-6 and IL-12 production by the immune system cells was determined using the appropriate commercial ELISA (BioSource, Camarillo, CA, USA). Results are expressed as the “fold” (x) increases in cytokine production by treated cells compared to control cells.\nPBMCs were incubated with 1 mg/ml of 5.0-7.5 x 105 Da and production of IL-6 and IL-12 was determined (Table 9).\nPBMCs, isolated from the blood of individual #1, were incubated with 0.008, 0.04, 0.2 and 1 mg/ml of 5.0-7.5 x 10^5 Da (Table 10)"}, "[10]": {"details": "HA 8.0 μg/ml, 48 h, listed as 0.5-7.5 × 10^5 Da HA"}, "[11]": {"details": "HA 80.0 μg/ml alone (+ saline), 24-well, Example 6"}}, "data": [{"substance": "Hyaluronic acid [5.0-7.5 × 10^5 Da HA]", "values": [{"measurement": "% INHIBITION of cell proliferation", "setting": "[1]; HA 0.8 μg/ml, 48 h", "value": 15, "unit": "%"}, {"measurement": "% INHIBITION of cell proliferation", "setting": "[1]; [10]", "value": 26, "unit": "%"}, {"measurement": "% INHIBITION of cell proliferation", "setting": "[1]; [11]", "value": 30, "unit": "%"}, {"measurement": "% INHIBITION of cell proliferation", "setting": "[2]; HA 0.8 μg/ml", "value": 7, "unit": "%"}, {"measurement": "% INHIBITION of cell proliferation", "setting": "[2]; HA 8.0 μg/ml, listed as 0.5-7.5 × 10^5 Da HA", "value": 13, "unit": "%"}, {"measurement": "% INHIBITION of cell proliferation", "setting": "[3]; HA 0.8 μg/ml, 48 h", "value": 6, "unit": "%"}, {"measurement": "% INHIBITION of cell proliferation", "setting": "[3]; [10]", "value": 15, "unit": "%"}, {"measurement": "% INHIBITION of cell proliferation", "setting": "[3]; [11]", "value": 38, "unit": "%"}, {"measurement": "% INHIBITION of cell proliferation", "setting": "[3]; HA 80.0 μg/ml, 48 h", "value": 38, "unit": "%"}, {"measurement": "% INHIBITION of cell proliferation", "setting": "[4]; HA 0.008 μg/ml alone (+ saline)", "value": 12, "unit": "%"}, {"measurement": "% INHIBITION of cell proliferation", "setting": "[4]; HA 0.08 μg/ml alone (+ saline)", "value": 12, "unit": "%"}, {"measurement": "% INHIBITION of cell proliferation", "setting": "[4]; HA 0.8 μg/ml, 48 h", "value": 19, "unit": "%"}, {"measurement": "% INHIBITION of cell proliferation", "setting": "[4]; HA 8.0 μg/ml, 48 h", "value": 24, "unit": "%"}, {"measurement": "% INHIBITION of cell proliferation", "setting": "[4]; [11]", "value": 35, "unit": "%"}, {"measurement": "% INHIBITION of cell proliferation", "setting": "[4]; HA 80.0 μg/ml, 48 h", "value": 35, "unit": "%"}, {"measurement": "% INHIBITION of cell proliferation", "setting": "[5]; HA 0.8 μg/ml", "value": 20, "unit": "%"}, {"measurement": "% INHIBITION of cell proliferation", "setting": "[5]; HA 8.0 μg/ml", "value": 20, "unit": "%"}, {"measurement": "% INHIBITION of cell proliferation", "setting": "[5]; HA 80.0 μg/ml", "value": 30, "unit": "%"}, {"measurement": "% INHIBITION of cell proliferation", "setting": "[6]; HA 0.8 μg/ml", "value": 10, "unit": "%"}, {"measurement": "% INHIBITION of cell proliferation", "setting": "[6]; HA 8.0 μg/ml", "value": 10, "unit": "%"}, {"measurement": "% INHIBITION of cell proliferation", "setting": "[6]; HA 80.0 μg/ml", "value": 2, "unit": "%"}, {"measurement": "% INHIBITION of cell proliferation", "setting": "[7]; HA 0.8 μg/ml, 48 h", "value": 0, "unit": "%"}, {"measurement": "% INHIBITION of cell proliferation", "setting": "[7]; HA 8.0 μg/ml, 48 h", "value": 3, "unit": "%"}, {"measurement": "% INHIBITION of cell proliferation", "setting": "[7]; HA 80.0 μg/ml, 48 h", "value": 1, "unit": "%"}, {"measurement": "% INHIBITION of cell proliferation", "setting": "[7]; HA at 0.8 μg/ml alone (+ saline), 24-well, Example 6", "value": 3, "unit": "%"}, {"measurement": "% inhibition of proliferation", "setting": "[8]", "value": 0, "unit": "%"}, {"measurement": "IL-6 production, fold increase vs control cells", "setting": "[9]; PBMCs of individual 1, HA 1 mg/ml", "value": 3.8, "unit": "x"}, {"measurement": "IL-6 production, fold increase vs control cells", "setting": "[9]; PBMCs of individual 2, HA 1 mg/ml", "value": 1.8, "unit": "x"}, {"measurement": "IL-6 production, fold increase vs control cells", "setting": "[9]; PBMCs of individual 3, HA 1 mg/ml", "value": 4.1, "unit": "x"}, {"measurement": "IL-6 production, fold increase vs control cells", "setting": "[9]; PBMCs of individual 4, HA 1 mg/ml", "value": 1.4, "unit": "x"}, {"measurement": "IL-6 production, fold increase vs control cells", "setting": "[9]; PBMCs of individual 5, HA 1 mg/ml", "value": 6.3, "unit": "x"}, {"measurement": "IL-6 production, fold increase vs control cells", "setting": "[9]; PBMCs of individual #1, HA 0.008 mg/ml", "value": 2.4, "unit": "x"}, {"measurement": "IL-6 production, fold increase vs control cells", "setting": "[9]; PBMCs of individual #1, HA 0.040 mg/ml", "value": 3.5, "unit": "x"}, {"measurement": "IL-6 production, fold increase vs control cells", "setting": "[9]; PBMCs of individual #1, HA 0.200 mg/ml", "value": 2.9, "unit": "x"}]}]}
